The supplement of paper PMC11061612

Tests used:
Experiment in all cases: combination Emax (second highest fraction inhibited in the dose matrix, 72 h); higher = more inhibition; extreme values may be limits of the assay
[1] = system: NALM-6 (B-Lymphoblastic Leukemia)
Summary of the method: (§1)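 Bliss excess equals the observed combination effect minus the expected value EA + EB − EA·EB, where EA and EB are the effects of each agent alone. Combination Emax is the second-highest inhibition within the matrix. Inhibition was scaled from CellTiter-Glo 2.0 luminescence, with 0 set by vehicle wells and 1 by blank wells, after 72 hours of two-drug dosing of cells plated in 1536-well plates.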

[2] = system: KARPAS-620 (Plasma Cell Myeloma)
Summary of the method: as §1

[3] = system: COR-L95 (Small Cell Lung Carcinoma)
Summary of the method: as §1

[4] = system: SW1990 (Pancreatic Carcinoma)
Summary of the method: as §1

[5] = system: MFH-ino (Other Solid Carcinomas)
Summary of the method: as §1

[6] = system: NCI-H2595 (Mesothelioma)
Summary of the method: as §1

[7] = system: SK-N-FI (Neuroblastoma)
Summary of the method: as §1

[8] = system: MDA-MB-231 (Breast Carcinoma)
Summary of the method: as §1

[9] = system: DSH1 (Bladder Carcinoma)
Summary of the method: as §1

[10] = system: SN12C (Kidney Carcinoma)
Summary of the method: as §1

[11] = system: ES7 (Ewing's Sarcoma)
Summary of the method: as §1

[12] = system: NCI-H1299 (Non-Small Cell Lung Carcinoma)
Summary of the method: as §1

[13] = system: KATOIII (Gastric Carcinoma)
Summary of the method: as §1

[14] = system: IHH-4 (Thyroid Gland Carcinoma)
Summary of the method: as §1

[15] = system: TE-5 (Esophageal Squamous Cell Carcinoma)
Summary of the method: as §1

[16] = system: HT-29 (Colorectal Carcinoma)
Summary of the method: as §1

[17] = system: DB (B-Cell Non-Hodgkin's Lymphoma)
Summary of the method: as §1

[18] = system: SW1088 (Low Grade Glioma)
Summary of the method: as §1

[19] = system: SW1783 (Low Grade Glioma)
Summary of the method: as §1

[20] = system: DOV13 (Ovarian Carcinoma)
Summary of the method: as §1

Compound	combination Emax [1]	combination Emax [2]	combination Emax [3]	combination Emax [4]	combination Emax [5]	combination Emax [6]	combination Emax [7]	combination Emax [8]	combination Emax [9]	combination Emax [10]	combination Emax [11]	combination Emax [12]	combination Emax [13]	combination Emax [14]	combination Emax [15]	combination Emax [16]	combination Emax [17]	combination Emax [18]	combination Emax [19]	combination Emax [20]
C=CCn1c(=O)c2cnc(Nc3ccc(N4CCN(C)CC4)cc3)nc2n1-c1cccc(C(C)(C)O)n1 [AZD1775] + CCc1c2c(nc3ccc(O)cc13)-c1cc3c(c(=O)n1C2)COC(=O)[C@]3(O)CC [SN-38] (first compound max 1 µM, partner max 0.3 µM)	1	0.546	0.542	0.542	0.737	0.318	0.586	0.916	0.999	0.587	0.997	0.751	0.431	0.975	0.875	0.929	0.985	0.712	0.825	1
C=CCn1c(=O)c2cnc(Nc3ccc(N4CCN(C)CC4)cc3)nc2n1-c1cccc(C(C)(C)O)n1 [AZD1775] + Nc1ccn([C@@H]2O[C@H](CO)[C@@H](O)C2(F)F)c(=O)n1 [Gemcitabine] (first compound max 1 µM, partner max 0.3 µM)	0.958	0.548	0.411	0.384	0.68	0.344	0.616	0.78	0.923	0.576	0.983	0.818	0.506	1	0.568	0.884	0.952	0.581	0.684	0.952
CN(CCO)CC[C@H](CSc1ccccc1)Nc1ccc(S(=O)(=O)NC(=O)c2ccc(N3CCC([C@@H](O)c4ccccc4-c4ccc(Cl)cc4)CC3)cc2)cc1S(=O)(=O)C(F)(F)F [AZD4320] + CC(=O)O[C@H]1C(=O)[C@@]2(C)[C@H]([C@H](OC(=O)c3ccccc3)[C@]3(O)C[C@H](OC(=O)[C@H](O)[C@@H](NC(=O)c4ccccc4)c4ccccc4)C(C)=C1C3(C)C)[C@]1(OC(C)=O)CO[C@@H]1C[C@@H]2O [Paclitaxel] (first compound max 1 µM, 7x7, partner max 3 µM)	1	1	1	0.957	0.777	0.726	0.739	0.984	1	0.823	1	0.892	0.803	0.999	0.968	0.885	1	0.837	0.875	1
CN(CCO)CC[C@H](CSc1ccccc1)Nc1ccc(S(=O)(=O)NC(=O)c2ccc(N3CCC([C@@H](O)c4ccccc4-c4ccc(Cl)cc4)CC3)cc2)cc1S(=O)(=O)C(F)(F)F [AZD4320] + CS(=O)(=O)CCNCc1ccc(-c2ccc3ncnc(Nc4ccc(OCc5cccc(F)c5)c(Cl)c4)c3c2)o1 [Lapatinib] (first compound max 1 µM, 7x7, partner max 10 µM)	1	1	1	0.302	0.262	0.329	0.578	0.951	1	0.347	0.984	0.244	0.586	0.268	0.888	0.928	1	0.388	0.883	1
C[C@@H]1COCCN1c1cc(C2([S@](C)(=N)=O)CC2)nc(-c2ccnc3[nH]ccc23)n1 [AZD6738] + C1CC(C1)(C(=O)[O-])C(=O)[O-].N.N.[Pt+2] [Carboplatin] (first compound max 10 µM, 7x7, partner max 10 µM)	0.924	0.399		0.422	0.468	0.275	0.601	0.576	0.725	0.222	0.777	0.508	0.424	0.773	0.541	0.766	0.435	0.602	0.447	0.818
N#Cc1cnc(Nc2cc(NC[C@H]3CNCCO3)c(C(F)(F)F)cn2)cn1 [SRA737] + C=CCn1c(=O)c2cnc(Nc3ccc(N4CCN(C)CC4)cc3)nc2n1-c1cccc(C(C)(C)O)n1 [AZD1775] (first compound max 10 µM, partner max 1 µM)	0.969	0.779	0.299	0.507	0.441	0.236	0.722	0.807	0.682	0.212	0.829	0.674	0.392	0.825	0.482	0.827	0.87	0.77	0.467	
